Laboratory results taken from patent US10770169B2, “Method of providing a treatment to a subject based on a dynamic pathway map” (THE REGENTS OF THE UNIVERSITY OF CALIFORNIA, priority 2010, dated 2020).

Tested on: panel of 55 breast cancer cell lines
Assay: Cell growth inhibition assay (Cell Titer Glo, 72 h, 9 doses; GI50, TGI, LC50)
Format: cell-based, human
Conditions: for GI50: value is the negative log10 of mol/L

## C[C@@H](Oc1cc(-n2cnc3ccc(CN4CCN(C)CC4)cc32)sc1C(N)=O)c1ccccc1C(F)(F)F [GSK461364A]
600MPE cell line, censored GI50 values
  GI50: 5.16
AU565 cell line, censored GI50 values
  GI50: 8.35
BT474 cell line, censored GI50 values
  GI50: 5.07
BT483 cell line, censored GI50 values
  GI50: 5.35
CAMA1 cell line, censored GI50 values
  GI50: 5.17
HCC38 cell line, censored GI50 values
  GI50: 7.42
HCC70 cell line, censored GI50 values
  GI50: 7.01
HCC1143 cell line, censored GI50 values
  GI50: 7.13
HCC1187 cell line, censored GI50 values
  GI50: 7.48
HCC1395 cell line, censored GI50 values
  GI50: 8.31
HCC1419 cell line, censored GI50 values
  GI50: 5.12
HCC1428 cell line, censored GI50 values
  GI50: 5.26
HCC1500 cell line, censored GI50 values
  GI50: 7.89
HCC1806 cell line, censored GI50 values
  GI50: 7.95
HCC1937 cell line, censored GI50 values
  GI50: 7.51
HCC1954 cell line, censored GI50 values
  GI50: 8.16
HCC2185 cell line, censored GI50 values
  GI50: 8.26
HCC3153 cell line, censored GI50 values
  GI50: 7.50
MCF7 cell line, censored GI50 values
  GI50: 7.82
MDAMB134VI cell line, censored GI50 values
  GI50: 7.83
MDAMB157 cell line, censored GI50 values
  GI50: 8.98
MDAMB175VII cell line, censored GI50 values
  GI50: 5.21
MDAMB231 cell line, censored GI50 values
  GI50: 7.68
MDAMB361 cell line, censored GI50 values
  GI50: 8.72
MDAMB415 cell line, censored GI50 values
  GI50: 7.08
MDAMB436 cell line, censored GI50 values
  GI50: 7.90
MDAMB453 cell line, censored GI50 values
  GI50: 7.97
MDAMB468 cell line, censored GI50 values
  GI50: 8.41
SKBR3 cell line, censored GI50 values
  GI50: 7.78
SUM149PT cell line, censored GI50 values
  GI50: 7.72
SUM159PT cell line, censored GI50 values
  GI50: 7.49
SUM185PE cell line, censored GI50 values
  GI50: 5.66
SUM1315MO2 cell line, censored GI50 values
  GI50: 7.51
Cell line 600MPE
  GI50: 5.16
Cell line AU565
  GI50: 8.35

## COc1ncc(-c2ccc3nccc(-c4ccnnc4)c3c2)cc1NS(=O)(=O)c1ccc(F)cc1F [GSK2126458A]
Cell line 600MPE, censored GI50 values
  GI50: 8.22
Cell line 600MPE
  GI50: 8.22
Cell line AU565, censored GI50 values
  GI50: 8.10
Cell line AU565
  GI50: 8.10
Cell line BT20, censored GI50 values
  GI50: 7.80
Cell line BT20
  GI50: 7.80
Cell line BT474, censored GI50 values
  GI50: 8.36
Cell line BT483, censored GI50 values
  GI50: 8.94
Cell line BT549, censored GI50 values
  GI50: 7.32
Cell line CAMA1, censored GI50 values
  GI50: 6.97
Cell line HCC38, censored GI50 values
  GI50: 7.62
Cell line HCC70, censored GI50 values
  GI50: 8.13
Cell line HCC202, censored GI50 values
  GI50: 9.03
Cell line HCC1143, censored GI50 values
  GI50: 7.43
Cell line HCC1187, censored GI50 values
  GI50: 8.30
Cell line HCC1395, censored GI50 values
  GI50: 7.31
Cell line HCC1419, censored GI50 values
  GI50: 8.75
Cell line HCC1428, censored GI50 values
  GI50: 7.48
Cell line HCC1500, censored GI50 values
  GI50: 7.11
Cell line HCC1806, censored GI50 values
  GI50: 7.54
Cell line HCC1937, censored GI50 values
  GI50: 7.57
Cell line HCC1954, censored GI50 values
  GI50: 7.97
Cell line HCC3153, censored GI50 values
  GI50: 7.36
Cell line LY2, censored GI50 values
  GI50: 7.93
Cell line MCF7, censored GI50 values
  GI50: 8.14
Cell line MDAMB134VI, censored GI50 values
  GI50: 7.95
Cell line MDAMB157, censored GI50 values
  GI50: 6.49
Cell line MDAMB175VII, censored GI50 values
  GI50: 8.29
Cell line MDAMB231, censored GI50 values
  GI50: 5.57
Cell line MDAMB361, censored GI50 values
  GI50: 7.46
Cell line MDAMB436, censored GI50 values
  GI50: 6.75
Cell line MDAMB453, censored GI50 values
  GI50: 8.28
Cell line MDAMB468, censored GI50 values
  GI50: 7.47
Cell line SKBR3, censored GI50 values
  GI50: 8.41
Cell line SUM52PE, censored GI50 values
  GI50: 8.46
Cell line SUM149PT, censored GI50 values
  GI50: 7.64
Cell line SUM159PT, censored GI50 values
  GI50: 7.52
Cell line SUM1315MO2, censored GI50 values
  GI50: 8.02
Cell line T47D, censored GI50 values
  GI50: 8.45
Cell line UACC812, censored GI50 values
  GI50: 8.67
Cell line UACC893, censored GI50 values
  GI50: 8.22
Cell line ZR75B, censored GI50 values
  GI50: 8.31
Cell line ZR751, censored GI50 values
  GI50: 8.07

## O=C(Nc1cc(Cl)cc2c1[nH]c1cnccc12)c1cccnc1 [PS1145]
Across the cell line panel
  variability in cell line response: variability in cell line response was minimal
